The source of these data is patent publication US9962341B2, “Active pharmaceutical ingredient (API) comprising cannabinoids for use in the treatment of cancer” (GW Pharma Limited, priority 2014, dated 2018).

Holding throughout (format): cell-based
One experiment has as its system PANC-1. Description: Cell viability (CellTiter-Blue, 72 h), PANC-1 pancreatic cancer cells. To be noted: Homo sapiens, PANC-1, 1% FBS. How it is done: (§1) The following cell lines were tested in this example: Lung Cancer (A549, NCI-H460); Pancreatic cancer (PANC1, Mia-Pa-Ca-2); Melanoma (WM115, A375); Ovarian cancer (OVCAR3, SKOV3); Gastric cancer (MKN45, HGC-27); Renal cancer (ACHN) and Bladder Cancer (RT112).
(§2) Each tumour cell line was maintained in vitro in RPMI 1640+10% heat inactivated FBS and 2 mM L-glutamine (growth media) at 37° C. in 5% CO2 and humidified conditions. The cells were harvested, washed, re-suspended into growth medium and counted. The cells were re-suspended into assay media (RPMI 1640+5% heat inactivated FBS+ and 2 mM L-glutamine) at 4×10^4 cells/ml (dependent upon cell type) and plated into the middle 240 wells of 384 well tissue culture plates (Corning CellBind, black-wall plates) 25 μl/well aliquots; 50 μl of growth media was aliquoted into the outer wells. There were 3 plates for each cell line.
(§3) The plates were incubated overnight at 37° C., in 5% humidified CO2.
(§4) The phytocannabinoid test compounds were prepared in 100% DMSO vehicle at a stock concentration of 20 and 40 mM.
(§5) Starting with the 20 mM stock in DMSO, this was serially diluted (2 fold) in DMSO in a 96-well plate, to 20 (no dilution), 10, 5, 2.5, 1.25, 0.625, 0.315, 0.157 and […]. Following this, 10 ul of each compound dilution was diluted into 990 ul of 1% (v/v) FBS media in a deep well block making the final concentrations of 200, 100, 50, 25, 12.5, 6.25, 3.125, 1.56 and 0.79 μM (2× final assay concentrations and 1% DMSO).
(§6) An equal volume of each cannabinoid in the combination (stock concentration 40 mM) was mixed together to make a stock of 20 mM of each cannabinoid in DMSO. This was serially diluted (2 fold) in DMSO in a 96-well plate, to 20 (no dilution), 10, 5, 2.5, 1.25, 0.625, 0.315, 0.157 and […]. Following this, 10 ul of each combination dilution was diluted into 990 ul of 1% (v/v) FBS media in a deep well block making the final concentrations of 200, 100, 50, 25, 12.5, 6.25, 3.125, 1.56 and 0.79 μM (2× final assay concentrations and 1% DMSO).
Gemcitabine SOC was prepared in 100% DMSO to give a stock concentration of 20 mM. This was then serially diluted (3 fold) in DMSO in a 96-well plate, to 20 (no dilution), 6.6, 2.2, 0.741, 0.247, 0.082, 0.027, 0.009 and 0.003 mM. Following this, 10 ul of each dilution was further diluted into 990 ul of 1% (v/v) FBS media making the final concentrations of 200 (no dilution), 66.66, 22.22, 7.41, 2.47, 0.82, 0.27, 0.09, 0.03 μM (2× final assay concentrations and 1% DMSO).
(§7) The plates were incubated for 72 h at 37° C. in 5% humidified CO2. To develop the plates, at 72 h, 10 μl of CellTiter-Blue™ reagent was added to each test/blank well.
(§8) The plates were incubated at 37° C., 5% humidified CO2. Fluorescence was measured using a Flex II Station plate reader (570 nm excitation wavelength, 600 nm emission wavelength, 590 nm cut-off) after 3 h.
(§9) The phytocannabinoid compounds CBD, CBGA, CBG, CBDA, THCV and THC were tested on a panel of lung (A549, NCI-H460), pancreatic (PANC1, Mia-Pa-Ca-2), melanoma (WM115, A375), ovarian (OVCAR3, SKOV3), gastric (MKN45, HGC-27), renal (ACHN) and bladder (RT112) cancer cell lines according to the protocol for 72 h in media containing 1% FBS.
(§10) The IC50 values for each phytocannabinoid and combination of CBD with the other phytocannabinoids was calculated for each cell line. The raw data values expressed in relative fluorescent units were normalised to the vehicle for each individual plate and any reduction in fluorescence indicated a decrease in viability.
(§11) This calculation was as described in Example 1 above.
A general note: Resazurin is reduced to fluorescent resorufin, in cell work by metabolically active cells.

For the next experiment, the system named is OVCAR3. The experiment can be described thus: Cell viability (CellTiter-Blue, 72 h), OVCAR3 ovarian cancer cells. Particulars: Homo sapiens, OVCAR-3. How it is done: as §1, §2, §3, §4, §5, §6
(§12) Cisplatin (stock of 1 mg/ml=3.33 mM in water) was diluted in 1% FBS media to give a stock concentration of 1 mM. This was then diluted in 1% FBS media from the stock solution to 200 μM, then serially diluted (3-fold) in 1% FBS media to 200 (no dilution), 66.66, 22.22, 7.41, 2.47, 0.82, 0.27, 0.09, 0.03 μM (2× final assay concentrations; no DMSO).
as §7, §8, §9, §10, §11

The next experiment deals with SKOV3. Description: Cell viability (CellTiter-Blue, 72 h), SKOV3 ovarian cancer cells. To be noted: Homo sapiens, SK-OV-3. How it is done:
as §1, §2, §3, §4, §5, §6, §12, §7, §8, §9, §10, §11

The subject of a further experiment is ACHN. Description: Cell viability (CellTiter-Blue, 72 h), ACHN renal cancer cells. To be noted: Homo sapiens. How it is done:
as §1, §2, §3, §4, §5, §6
Taxotere SOC was prepared in 100% DMSO to give a stock concentration of 10 mM. This was diluted in DMSO from the stock solution to 200 μM, then serially diluted (3-fold) in DMSO to 200 (no dilution), 66.66, 22.22, 7.41, 2.47, 0.82, 0.27, 0.09, 0.03 μM. 10 ul of each of the taxotere dilutions was diluted in 990 ul of 1% (v/v) FBS media making the final concentrations of 2, 0.67, 0.22, 0.074, 0.0247, 0.0082, 0.0027 0.0009, 0.0003 μM (2× final assay concentrations and 1% DMSO).
as §7, §8, §9, §10, §11

Another experiment deals with RT112. Description: Cell viability (CellTiter-Blue, 72 h), RT112 bladder cancer cells. To be noted: Homo sapiens, RT-112. How it is done: as §1, §2, §3, §4, §5, §6, §12, §7, §8, §9, §10, §11
Setting [1] is: 72 h, read-out: Cell line IC50 value.
Setting [2] is: read-out: Dm (median effect dose).
Setting [3] is: OVCAR3, 1% FBS, 72 h, read-out: Cell line IC50 value.
Setting [4] is: OVCAR3 cells, 1% FBS, read-out: Dm (potency, median effect).
[5] abbreviates: SKOV3, 1% FBS, 72 h, read-out: Cell line IC50 value.
The mark [6] stands for this setting: SKOV3 cells, 1% FBS, read-out: Dm (potency, median effect).
Where [7] appears, read: read-out: Dm (potency, median effect).
Setting [8] is: RT112, 1% FBS, 72 h, read-out: Cell line IC50 value.
Where [9] appears, read: RT112 cells, 1% FBS, read-out: Dm (potency, median effect).

Where two headings read alike, the source gives them in different places.

Turning to `C=C(C)[C@@H]1CCC(C)=C[C@H]1c1c(O)cc(CCCCC)cc1O` [CBD, Cannabidiol], the IC50 in the experiment on PANC-1 (setting [1]) stood at 3 µM; in the experiment on PANC-1 (setting [2]), 2.92 µM; in the experiment on OVCAR3 (setting [3]), 2.8 µM; in the experiment on OVCAR3 (setting [4]) it was 2.14 µM; with SKOV3 (setting [5]), 3.1 µM; in the experiment on SKOV3 (setting [6]), 3.17 µM. In addition, the IC50 in the experiment on ACHN (setting [1]) came to 3.3 µM; in the experiment with ACHN (setting [7]) it was 3.11 µM; in the experiment with RT112 (setting [8]), 2 µM; in the experiment on RT112 (setting [9]), 1.79 µM.

Regarding `C=C(C)[C@@H]1CCC(C)=C[C@H]1c1c(O)cc(CCCCC)c(C(=O)O)c1O` [CBDA, Cannabidiolic acid], the IC50 in the experiment with PANC-1 (setting [1]) stood at 13.1 µM; in the experiment with PANC-1 (setting [2]), 12.6 µM; in the experiment on OVCAR3 (setting [3]) it was 6.7 µM; in the experiment with OVCAR3 (setting [4]), 5.51 µM; with SKOV3 (setting [5]), 1.3 µM; with SKOV3 (setting [6]), 10.6 µM. The IC50 in the experiment with ACHN (setting [1]) is 10.7 µM; with ACHN (setting [7]), 8.44 µM; in the experiment with RT112 (setting [8]), 8.2 µM; in the experiment with RT112 (setting [9]), 6.36 µM.

As to `CCCCCc1cc(O)c(C/C=C(\C)CCC=C(C)C)c(O)c1` [CBG, Cannabigerol], the IC50 in the experiment with PANC-1 (setting [1]) was found to be 3.1 µM; in the experiment with PANC-1 (setting [2]), 2.88 µM; in the experiment on OVCAR3 (setting [3]), 5.3 µM; in the experiment on OVCAR3 (setting [4]), 4.33 µM; with SKOV3 (setting [5]), 5.5 µM; in the experiment on SKOV3 (setting [6]) it was 4.75 µM. The IC50 was 3 µM in the experiment with ACHN (setting [1]), 2.96 µM in the experiment on ACHN (setting [7]), 2.5 µM with RT112 (setting [8]) and 2.14 µM in the experiment on RT112 (setting [9]).

Consider `CCCCCc1cc(O)c(C/C=C(\C)CCC=C(C)C)c(O)c1C(=O)O` [CBGA, Cannabigerolic acid], for which the IC50 stood at 8.5 µM with PANC-1 (setting [1]); 8.82 µM in the experiment with PANC-1 (setting [2]); 6.1 µM with OVCAR3 (setting [3]); 6.41 µM with OVCAR3 (setting [4]); 7.9 µM in the experiment with SKOV3 (setting [5]); 8.64 µM with SKOV3 (setting [6]). The IC50 was 11.6 µM with ACHN (setting [1]), 12 µM with ACHN (setting [7]), 9.8 µM in the experiment on RT112 (setting [8]) and 9.72 µM with RT112 (setting [9]).

`CCCCCc1cc(O)c2c(c1)OC(C)(C)[C@@H]1CCC(C)=C[C@@H]21` [THC, Tetrahydrocannabinol, reference compound]: the IC50 came to 3 µM with PANC-1 (setting [1]); 3.15 µM with PANC-1 (setting [2]); 5.9 µM with OVCAR3 (setting [3]); 4.42 µM with OVCAR3 (setting [4]); 5.3 µM with SKOV3 (setting [5]); 4.56 µM in the experiment with SKOV3 (setting [6]). In addition, the IC50 with ACHN (setting [1]) is 3.6 µM; in the experiment on ACHN (setting [7]), 4.4 µM; in the experiment with RT112 (setting [8]), 3.6 µM; in the experiment on RT112 (setting [9]), 3.09 µM.

In the case of `CCCc1cc(O)c2c(c1)OC(C)(C)[C@@H]1CCC(C)=C[C@@H]21` [THCV, Tetrahydrocannabivarin], the IC50 turned out to be 6.5 µM in the experiment with PANC-1 (setting [1]); 6.46 µM in the experiment on PANC-1 (setting [2]); 6.5 µM with OVCAR3 (setting [3]); 6.51 µM in the experiment with OVCAR3 (setting [4]); 6.5 µM in the experiment with SKOV3 (setting [5]); 6.58 µM with SKOV3 (setting [6]). The IC50 in the experiment with ACHN (setting [1]) is 6.8 µM; with ACHN (setting [7]), 6.76 µM; with RT112 (setting [8]) it was 4.7 µM; with RT112 (setting [9]), 4.75 µM.

For `CC(=O)O[C@@]12CO[C@@H]1C[C@H](O)[C@@]1(C)C(=O)[C@H](O)C3=C(C)[C@@H](OC(=O)[C@H](O)[C@@H](NC(=O)OC(C)(C)C)c4ccccc4)C[C@@](O)([C@@H](OC(=O)c4ccccc4)[C@H]21)C3(C)C` [Taxotere, Docetaxel, reference compound], the IC50 with ACHN (setting [1]) was found to be 0.0018 µM.
